Results reported in the supplement of paper PMC10307832.

Assays:
Experiment in all cases: relative viability (nuclei count vs DMSO), 5 days (fraction); higher = more cells survive
[1] = test system: CAL-12T
Procedure, shortened: (§1)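 Five library-drug doses in √10 steps were combined with a fixed anchor-drug dose, or a single drug was given alone, by pin tool to lung cancer cell lines in 1536-well plates the day after seeding. Nuclei were stained and counted after 5 days. Relative viability is the nuclei count in treated wells over that in vehicle wells, taken as the median of duplicate plates.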

[2] = test system: NCI-H1792
Procedure, shortened: as §1

[3] = test system: A-427
Procedure, shortened: as §1

[4] = test system: NCI-H2009
Procedure, shortened: as §1

[5] = test system: NCI-H727
Procedure, shortened: as §1

[6] = test system: NCI-H23
Procedure, shortened: as §1

[7] = test system: SW 1573
Procedure, shortened: as §1

[8] = test system: SK-LU-1
Procedure, shortened: as §1

[9] = test system: NCI-H1755
Procedure, shortened: as §1

[10] = test system: NCI-H1395
Procedure, shortened: as §1

[11] = test system: HCC-827
Procedure, shortened: as §1

[12] = test system: EMC-BAC-2
Procedure, shortened: as §1

[13] = test system: HARA
Procedure, shortened: as §1

[14] = test system: HOP-62
Procedure, shortened: as §1

[15] = test system: HCC-366
Procedure, shortened: as §1

[16] = test system: NCI-H1915
Procedure, shortened: as §1

[17] = test system: NCI-H2228
Procedure, shortened: as §1

[18] = test system: NCI-H1437
Procedure, shortened: as §1

[19] = test system: NCI-H460
Procedure, shortened: as §1

[20] = test system: COR-L 105
Procedure, shortened: as §1

Compound `O=c1cc(-c2cccc3c2Sc2ccccc2S3)oc(N2CCOCC2)c1` + CS(=O)(=O)CCNCc1ccc(-c2ccc3ncnc(Nc4ccc(OCc5cccc(F)c5)c(Cl)c4)c3c2)o1 [Lapatinib] (partner 2 µM) has a relative viability ([1]; first compound 0.08 µM) of 0.501, a relative viability ([1]; first compound 0.253 µM) of 0.646 and a relative viability ([1]; first compound 0.8 µM) of 0.595. For the same compound, the relative viability ([1]; first compound 2.53 µM) was 0.551, the relative viability ([1]; first compound 8 µM) was 0.564 and the relative viability ([2]; first compound 0.253 µM) was 1. For the same compound, the relative viability ([2]; first compound 0.8 µM) was 0.824, the relative viability ([2]; first compound 2.53 µM) was 0.83 and the relative viability ([2]; first compound 8 µM) was 1.58. For the same compound, the relative viability ([3]; first compound 0.08 µM) was 1.06, the relative viability ([3]; first compound 0.253 µM) was 1.05 and the relative viability ([3]; first compound 0.8 µM) was 1.08. The relative viability ([3]; first compound 2.53 µM) was 0.868, the relative viability ([3]; first compound 8 µM) was 1.12 and the relative viability ([4]; first compound 0.08 µM) was 0.879. For the same compound, the relative viability ([4]; first compound 0.253 µM) was 0.893, the relative viability ([4]; first compound 0.8 µM) was 0.876 and the relative viability ([4]; first compound 2.53 µM) was 0.895. For the same compound, the relative viability ([4]; first compound 8 µM) was 0.823, the relative viability ([5]; first compound 0.253 µM) was 1.17 and the relative viability ([5]; first compound 2.53 µM) was 0.802. It also gave a relative viability ([5]; first compound 8 µM) of 1.16, a relative viability ([6]; first compound 0.08 µM) of 1.1 and a relative viability ([6]; first compound 0.253 µM) of 1.34. For the same compound, the relative viability ([6]; first compound 0.8 µM) was 1.14, the relative viability ([6]; first compound 2.53 µM) was 0.868 and the relative viability ([6]; first compound 8 µM) was 1.17. For the same compound, the relative viability ([7]; first compound 0.08 µM) was 1.02, the relative viability ([7]; first compound 0.253 µM) was 1.28 and the relative viability ([7]; first compound 0.8 µM) was 0.935. It also gave a relative viability ([7]; first compound 2.53 µM) of 1.05, a relative viability ([7]; first compound 8 µM) of 1.24 and a relative viability ([8]; first compound 0.08 µM) of 1.02. The relative viability ([8]; first compound 0.253 µM) was 0.858, the relative viability ([8]; first compound 0.8 µM) was 0.968 and the relative viability ([8]; first compound 2.53 µM) was 0.817. For the same compound, the relative viability ([8]; first compound 8 µM) was 0.836, the relative viability ([9]; first compound 0.08 µM) was 1.09 and the relative viability ([9]; first compound 0.253 µM) was 1.06. It also gave a relative viability ([9]; first compound 0.8 µM) of 1.15, a relative viability ([9]; first compound 2.53 µM) of 1.03 and a relative viability ([9]; first compound 8 µM) of 1.08. It also gave a relative viability ([10]; first compound 0.08 µM) of 0.971, a relative viability ([10]; first compound 0.253 µM) of 1.04 and a relative viability ([10]; first compound 0.8 µM) of 1.02. It also gave a relative viability ([10]; first compound 2.53 µM) of 1.16, a relative viability ([10]; first compound 8 µM) of 0.949 and a relative viability ([11]; first compound 0.08 µM) of 0.189. The relative viability ([11]; first compound 0.253 µM) was 0.196, the relative viability ([11]; first compound 0.8 µM) was 0.168 and the relative viability ([11]; first compound 2.53 µM) was 0.189. It also gave a relative viability ([11]; first compound 8 µM) of 0.178, a relative viability ([12]; first compound 0.08 µM) of 0.873 and a relative viability ([12]; first compound 0.253 µM) of 0.987. For the same compound, the relative viability ([12]; first compound 0.8 µM) was 0.887, the relative viability ([12]; first compound 2.53 µM) was 0.865 and the relative viability ([12]; first compound 8 µM) was 0.929. For the same compound, the relative viability ([13]; first compound 0.08 µM) was 0.662, the relative viability ([13]; first compound 0.253 µM) was 0.751 and the relative viability ([13]; first compound 0.8 µM) was 0.562. It also gave a relative viability ([13]; first compound 2.53 µM) of 0.632, a relative viability ([13]; first compound 8 µM) of 0.719 and a relative viability ([14]; first compound 0.08 µM) of 0.829. It also gave a relative viability ([14]; first compound 0.253 µM) of 1.08, a relative viability ([14]; first compound 0.8 µM) of 1.13 and a relative viability ([14]; first compound 2.53 µM) of 0.727. For the same compound, the relative viability ([14]; first compound 8 µM) was 1.07, the relative viability ([15]; first compound 0.08 µM) was 1.12 and the relative viability ([15]; first compound 0.253 µM) was 1.71. It also gave a relative viability ([15]; first compound 0.8 µM) of 1.12, a relative viability ([15]; first compound 2.53 µM) of 0.995 and a relative viability ([15]; first compound 8 µM) of 1.56. It also gave a relative viability ([16]; first compound 0.08 µM) of 1.02, a relative viability ([16]; first compound 0.253 µM) of 1.04 and a relative viability ([16]; first compound 0.8 µM) of 1.13. For the same compound, the relative viability ([16]; first compound 2.53 µM) was 0.905, the relative viability ([16]; first compound 8 µM) was 1.06 and the relative viability ([17]; first compound 0.08 µM) was 1.02. The relative viability ([17]; first compound 0.253 µM) was 1.5, the relative viability ([17]; first compound 0.8 µM) was 0.912 and the relative viability ([17]; first compound 2.53 µM) was 0.891. For the same compound, the relative viability ([17]; first compound 8 µM) was 1.1, the relative viability ([18]; first compound 0.08 µM) was 0.782 and the relative viability ([18]; first compound 0.253 µM) was 1.2. For the same compound, the relative viability ([18]; first compound 0.8 µM) was 0.817, the relative viability ([18]; first compound 2.53 µM) was 0.751 and the relative viability ([18]; first compound 8 µM) was 1. For the same compound, the relative viability ([19]; first compound 0.08 µM) was 1.13, the relative viability ([19]; first compound 0.253 µM) was 1.52 and the relative viability ([19]; first compound 0.8 µM) was 1.22. For the same compound, the relative viability ([19]; first compound 2.53 µM) was 0.843, the relative viability ([19]; first compound 8 µM) was 1.19 and the relative viability ([20]; first compound 0.08 µM) was 0.359. The relative viability ([20]; first compound 0.253 µM) was 0.323, the relative viability ([20]; first compound 0.8 µM) was 0.306 and the relative viability ([20]; first compound 2.53 µM) was 0.375. The relative viability ([20]; first compound 8 µM) was 0.386.
